Test results as given in article PMC7828447, “Design, Synthesis and Biological Evaluation of Arylpyridin-2-yl Guanidine Derivatives and Cyclic Mimetics as Novel MSK1 Inhibitors. An Application in an Asthma Model” (Molecules, 2021).
Structures can show the parent of a compound that is named as a salt. Where two headings read alike, the source gives them in different places.

Experiments:
[1] = biological target: T1, human synthetic MSK1 (14-438-K, Millipore) (Homo sapiens, UniProt O75582); assay: MSK1 enzymatic inhibition assay (Kinase-Glo luminescence); format: biochemical; conditions: for inhibition at 1 µM: read-out: MSK1 % Inhibition 1 µM; for inhibition at 10 µM: read-out: MSK1 % Inhibition 10 µM; for IC50: 8 concentrations 0.03-100 µM; for MSK1 inhibitory activity (in words): tested at 1 and 10 µM
T1 construct: purchased Millipore 14-438-K
Method: All results are summarized in Table 1, Table 2, Table 3, Table 4 and Table 5 and on Figure 4. […]
An orthogonal luminescence-based assay Kinase-Glo® (Promega, Madison, WI, USA) was used to validate the hits, quantifying the amount of the remaining ATP in the solution following the kinase reaction. Enzymatic reactions were performed up to 4h at room temperature in presence of 3 µM ATP. All compounds were tested in quadruplicates at 1 µM and 10 µM. […] Luminescence was measured with EnVision Plate Reader (Perkin Elmer).

[2] = compound at 1 µM, ± Standard Deviation (n = 4)
[3] = compound at 10 µM, ± Standard Deviation (n = 4)
[4] = ± Standard Deviation (n = 4), read-out: MSK1 IC50
[5] = MSK1 IC50, ± Standard Deviation (n = 4)

T1 sequence (O75582 whole entry): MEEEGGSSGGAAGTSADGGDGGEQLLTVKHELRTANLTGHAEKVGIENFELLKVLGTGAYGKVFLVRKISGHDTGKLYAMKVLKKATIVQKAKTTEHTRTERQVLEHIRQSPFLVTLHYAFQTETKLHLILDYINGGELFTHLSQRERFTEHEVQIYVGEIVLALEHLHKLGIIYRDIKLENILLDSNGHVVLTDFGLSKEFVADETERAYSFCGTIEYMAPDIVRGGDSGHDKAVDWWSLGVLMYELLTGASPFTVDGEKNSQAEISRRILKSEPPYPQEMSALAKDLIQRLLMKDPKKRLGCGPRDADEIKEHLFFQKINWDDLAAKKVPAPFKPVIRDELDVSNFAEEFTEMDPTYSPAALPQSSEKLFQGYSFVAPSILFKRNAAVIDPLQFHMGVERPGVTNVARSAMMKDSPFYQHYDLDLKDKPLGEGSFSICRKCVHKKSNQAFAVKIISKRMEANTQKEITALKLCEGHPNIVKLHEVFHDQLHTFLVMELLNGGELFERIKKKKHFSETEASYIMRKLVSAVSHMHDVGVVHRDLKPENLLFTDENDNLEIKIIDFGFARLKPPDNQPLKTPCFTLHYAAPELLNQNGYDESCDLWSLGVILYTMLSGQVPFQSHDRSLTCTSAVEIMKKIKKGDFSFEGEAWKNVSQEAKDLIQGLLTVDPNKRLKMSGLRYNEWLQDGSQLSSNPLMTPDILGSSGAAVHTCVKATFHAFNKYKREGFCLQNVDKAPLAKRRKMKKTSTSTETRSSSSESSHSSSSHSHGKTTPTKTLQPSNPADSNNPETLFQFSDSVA

Row | inhibition at 1 µM [1, 2] [%] | inhibition at 10 µM [1, 3] [%] | MSK1 inhibitory activity (in words) [1] | Molecule | other results
1 | 20 ± 3 | 75 ± 8 |  | Nc1nc2c(-c3cccc(Cl)c3Cl)cccc2[nH]1 [Compound 49e, 4-(2,3-Dichlorophenyl)-1H-benzo[d]imidazol-2-amine Hydrobromide] | IC50 [1, 4]: 3.2 ± 0.2 µM
2 | -6 ± 3 | 41 ± 6 |  | Nc1nc2c(-c3ccccc3Cl)cccc2n1CCc1ccccc1 [Compound 74a] | 
3 | -5 ± 3 | -3 ± 4 | inactive | COc1ccc(-c2cccc(NC(=N)N)n2)cc1 [Compound 1d] | 
4 | 2 ± 2 | 31 ± 7 |  | N=C(N)Nc1cccc(-c2ccc(Cl)cc2Cl)n1 [Compound 1p, 1-[6-(2,4-Dichlorophenyl)pyridin-2-yl] guanidiniumtrifluoroacetate] | IC50 [1, 4]: > 30 µM
5 |  | 70 ± 7 |  | N=C(N)Nc1cccc(-c2cccnc2)n1 [Compound 1s, 1-[6-(Pyridin-3-yl)pyridin-2-yl] guanidinium trifluoroacetate] | IC50 [1, 4]: 5.8 ± 0.6 µM
6 | 10 ± 5 | 62 ± 15 |  | N=C(N)Nc1cccc(-c2cccc(C(F)(F)F)c2Cl)n1 [Compound 1i, 1-[6-(2-chloro-3-trifluoromethylphenyl)pyridin-2-yl] guanidinium trifluoroacetate] | IC50 [1, 4]: 8.6 ± 0.9 µM
7 | 62 ± 8 | 95 ± 8 |  | N=C(N)Nc1cccc(-c2ccccc2Cl)n1 [Compound 1k] | IC50 [1, 4]: 0.6 ± 0.1 µM
8 |  | 18 ± 2 |  | N=C(N)Nc1cccc(-c2ccncc2)n1 [Compound 1r, 1-[6-(Pyridin-4-yl)pyridin-2-yl] guanidiniumtrifluoroacetate] | 
9 | -7 ± 4 | -5 ± 5 |  | COc1ccc(-c2cccc3c2CNC(N)=N3)cc1 [Compound 37c, 5-(4-Methoxyphenyl)-3,4-dihydroquinazolin-2-amine Hydrobromide] | 
10 | -2 ± 4 | 49 ± 13 |  | Nc1nc2c(-c3ccccc3Cl)cccc2n1CCO [Compound 74b] | 
11 | 1 ± 3 | 5 ± 3 |  | Nc1nc2c(-c3ccccc3Cl)cccc2n1CCCCc1ccccc1 [Compound 74d] | 
12 | -4 ± 5 | 23 ± 1 | inactive | N=C(N)Nc1cccc(-c2ccc(Cl)cc2)n1 [Compound 1b] | 
13 | -7 ± 4 | 16 ± 4 | inactive | COc1cccc(-c2cccc(NC(=N)N)n2)c1 [Compound 1f] | 
14 | 4 ± 8 | 48 ± 15 |  | Cc1ccccc1-c1cccc(NC(=N)N)n1 [Compound 1l, 1-[6-(2-Methylphenyl)pyridin-2-yl] guanidiniumtrifluoroacetate] | IC50 [1, 4]: 3.5 ± 0.3 µM
15 | 16 ± 3 | 66 ± 12 |  | COc1ccccc1-c1cccc(NC(=N)N)n1 [Compound 1n] | IC50 [1, 4]: 2.3 ± 0.3 µM
16 | -4 ± 2 | 37 ± 5 |  | Nc1nc2c(-c3ccccc3Cl)cccc2n1CCCNC(=O)c1ccccc1 [Compound 74c] | 
17 | 0 | 45 ± 5 |  | N=C(N)Nc1cccc(-c2cccc(Cl)c2)n1 [Compound 1e] | IC50 [1, 4]: 9.7 ± 1 µM

Further lines, the molecule ahead of its results:

Row | Molecule | inhibition at 1 µM [1, 2] [%] | inhibition at 10 µM [1, 3] [%] | MSK1 inhibitory activity (in words) [1] | other results
18 | N=C(N)Nc1cccc(-c2cc(Cl)ccc2Cl)n1 (as salt: trifluoroacetate) [Compound 1q, 1-[6-(2,5-Dichlorophenyl)pyridin-2-yl] guanidiniumtrifluoroacetate] |  |  |  | melting point: 151 to 152 °C
19 | N=C(N)Nc1cccc(N2CCCCC2)n1 [Compound 31, 2-guanidino-6-piperidinopyridine] |  | 16 ± 4 | totally inactive | 
20 | N=C(N)Nc1ccc(-c2ccccc2)cn1 [Compound 12, 5-phenyl pyridinylguanidine] | -10 ± 2 | -11 ± 1 | inactive | 
21 | 6-Phenyl-3,4-dihydrobenzodiazepin-2-amine Hydrochloride [Compound 57] |  |  | inactive | MSK1 % Inhibition 1 µM [1, 2]: 8±6%; MSK1 % Inhibition 10 µM [1, 3]: 12±6%
22 | NC1=Nc2ccc(-c3ccccc3)cc2CN1 [Compound 43] | 7 ± 9 | 9 ± 6 |  | 
23 | Nc1nc2cc(-c3ccccc3)ccc2[nH]1 [Compound 50] | -7 ± 5 | 4 ± 4 |  | 
24 | N=C(N)Nc1cccc(CCc2ccccc2)n1 [Compound 24] | -4 ± 1 | -8 ± 1 | inactive | 
25 | Nc1nc2c(-c3ccccc3Cl)cccc2s1 [Compound 67] | -28 ± 7 | 4 ± 14 | inactivity | 
26 | O=c1[nH]c2cccc(-c3ccccc3Cl)c2[nH]1 [Compound 64] | -18 ± 5 | 0 | inactivity | 
27 | N=C(N)Nc1cc(-c2ccccc2)ccn1 [Compound 13] | -4 ± 1 | 5 ± 1 | inactive | 
28 | NC(=S)Nc1cccc(-c2ccccc2)n1 [Compound 33, 1(6-phenylpyridin-2-yl)thiourea] | 2 ± 10 | 5 ± 3 | inactive | 
29 | N=C(N)Nc1cccc(-c2cccnc2Cl)n1 [Compound 1t, 1-(2′-Chloro-[2,3′-bipyridin]-6-yl) guanidiniumtrifluoroacetate] |  |  |  | IC50 [1, 5]: 12.6 ± 4 µM; inhibition at 10 µM [1]: 69 ± 11%
30 | N=C(N)Nc1cccc(-c2ccc(Cl)cc2Cl)n1 (as salt: trifluoroacetate) [Compound 1p, 1-[6-(2,4-Dichlorophenyl)pyridin-2-yl] guanidiniumtrifluoroacetate] |  |  |  | melting point: 196 to 197 °C
31 | N=C(N)Nc1cccc(-c2ccccc2F)n1 (as salt: trifluoroacetate) [Compound 1j, 1-[6-(2-Fluorophenyl)pyridin-2-yl] guanidiniumtrifluoroacetate] |  |  |  | melting point: 199 to 200 °C
32 | N=C(N)Nc1ccc(CCc2ccccc2)cn1 [Compound 25] | 2 ± 4 | 6 ± 4 |  | 
33 | COc1ncccc1-c1cccc(NC(=N)N)n1 [Compound 1u, 1-(2′-Methoxy-[2,3′-bipyridin]-6-yl) guanidiniumtrifluoroacetate] |  |  | abolished the inhibitory activity | IC50 [1, 5]: > 30 µM; inhibition at 10 µM [1]: 42 ± 7%
34 | N=C(N)Nc1cccc(Cc2ccccc2)n1 [Compound 17, 1-(6-Benzylpyridin-2-yl) guanidiniumtrifluoroacetate] |  |  | inactive | inhibition at 1 µM [1]: -2 ± 1%; inhibition at 10 µM [1]: -2 ± 3%
35 | N=C(N)Nc1ncccc1-c1ccccc1 [Compound 14] | 1 ± 5 | 11 ± 5 | inactive | 
36 | N=C(N)Nc1cccc(N2CCCCC2)n1 (as salt: salt) [Compound 31, 2-guanidino-6-piperidinopyridine] |  |  |  | melting point: 196 to 197 °C
37 | N=C(N)Nc1cccc(-c2ccncc2)n1 (as salt: trifluoroacetate) [Compound 1r, 1-[6-(Pyridin-4-yl)pyridin-2-yl] guanidiniumtrifluoroacetate] |  |  |  | melting point: 208 to 209 °C
38 | Nc1nc2cccc(-c3ccccc3Cl)c2n1CCc1ccccc1 [Compound 75] | -6 ± 2 | 1 ± 2 |  | 
